Where two headings read alike, the source gives them in different places.
Key:
[1] = system: MCF-7 (breast cancer cell line); assay: Antiproliferative assay, MCF-7; assay type: cell-based, human; settings: read-out: Antiproliferative activity IC50 ± SEM, MCF-7
Excerpt: (§1) Refer to Supplementary Appendix A for more information.
(§2) DMSO (0.1%) was used as control.

[2] = system: HT-29 (colon cancer cell line); assay: Antiproliferative assay, HT-29; assay type: cell-based, human; settings: read-out: Antiproliferative activity IC50 ± SEM, HT-29
Excerpt: as §1, §2

[3] = system: Panc-1 (pancreatic cancer cell line); assay: Antiproliferative assay, Panc-1; assay type: cell-based, human; settings: read-out: Antiproliferative activity IC50 ± SEM, Panc-1
Excerpt: as §1, §2

[4] = system: four human cancer cell lines (HT-29, A-549, MCF-7, Panc-1); assay: Antiproliferative assay, mean over four cancer cell lines (GI50); settings: for IC50: read-out: Average IC50 (GI50)
Method: To calculate the total nuclear DNA, a fluorescent dye (propidium iodide, PI) is used which can attach to the DNA, thus offering a quick and precise technique. PI cannot pass through the cell membrane and its signal intensity can be considered as directly proportional to quantity of cellular DNA. Cells whose cell membranes are damaged or have changed permeability are counted as dead ones. […] The medium was removed; the compounds were added to the plates at 10 µM concentrations (in 0.1% DMSO) in triplicates, followed by incubation for 48 h. DMSO (0.1%) was used as control. After incubation, medium was removed followed by the addition of PI (25 µl, 50µg/mL in water/medium) to each well of the plates. At -80 °C, the plates were allowed to freeze for 24 h, followed by thawing at 25 °C. A fluorometer (Polar-Star BMG Tech) was used to record the readings at excitation and emission wavelengths of 530 and 620 nm for each well. The percentage cytotoxicity of compounds was calculated using the following formula:

[5] = Cell viability assay (MTT) on MCF-10A normal cells; settings: human, MCF-10A normal mammary gland epithelial cells
Method: (§3) The medium in which cells were propagated contained Dulbecco's modified Eagle's medium (DMEM)/ Ham's F-12 medium (1:1) supplemented with epidermal growth factor (20 ng/mL), hydrocortisone (500 ng/mL), insulin (10 μg/mL), 2 mM glutamine and 10% foetal calf serum. After every 2-3 days, the cells were passed using trypsin ethylenediamine tetra acetic acid (EDTA). The cells were seeded at a density of 10^4 cells mL^-1 in flat-bottomed culture plates containing 96 wells each. After 24 h, medium was removed from the plates and the compounds in (in 0.1% DMSO) were added (in 200 μL medium to yield a final concentration of 0.1% v/v) to the wells of plates. A single compound was designated with four wells followed by incubation of plates for 96h at 37°C. After incubation, medium was removed completely from the plates followed by addition of MTT (0.4 mg/mL in medium) to each well and subsequent incubation of plates for 3h. MTT (along with the medium) was removed and DMSO (150μL) was added to each well of the culture plates, followed by vortexing and subsequent measurement of absorbance (at 540 nm) using microplate reader.

[6] = system: A-549 (lung cancer cell line); assay: Antiproliferative assay, A-549; assay type: cell-based, human; settings: read-out: Antiproliferative activity IC50 ± SEM, A-549
Excerpt: as §1, §2

EGFR = EGFR (Homo sapiens, UniProt P00533); assay: EGFR-TK inhibitory assay
Sequence of EGFR (P00533 669-1210): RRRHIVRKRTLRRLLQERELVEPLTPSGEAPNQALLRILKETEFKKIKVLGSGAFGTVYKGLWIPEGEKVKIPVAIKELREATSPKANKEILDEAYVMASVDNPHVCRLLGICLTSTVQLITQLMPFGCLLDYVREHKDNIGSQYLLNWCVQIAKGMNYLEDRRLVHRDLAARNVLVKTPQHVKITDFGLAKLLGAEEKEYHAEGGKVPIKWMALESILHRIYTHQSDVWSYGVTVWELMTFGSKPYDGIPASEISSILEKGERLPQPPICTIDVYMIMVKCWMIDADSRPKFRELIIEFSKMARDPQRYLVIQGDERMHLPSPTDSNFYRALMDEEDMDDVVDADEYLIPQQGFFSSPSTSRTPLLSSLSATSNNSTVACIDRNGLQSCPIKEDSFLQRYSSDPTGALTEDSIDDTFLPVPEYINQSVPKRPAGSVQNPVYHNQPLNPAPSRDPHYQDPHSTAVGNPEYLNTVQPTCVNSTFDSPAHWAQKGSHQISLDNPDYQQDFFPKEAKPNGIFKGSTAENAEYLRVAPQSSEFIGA
Method: To record autophosphorylation level, EGFR kinase assay was carried out on the basis of DELFIA/Time-Resolved Fluorometry. […] Each compound (10 µL) was incubated with recombinant enzyme (10 µL, 5 ng for EGFR, 1:80 dilution in 100 mM HEPES) for 10 min at 25 °C, subsequent to the addition of 5X buffer (10 µL, containing 2 mM MnCl2, 100 µM Na3VO4, 20 mM HEPES and 1 mM DTT) and ATP-MgCl2 (20 µL, containing 0.1 mM ATP and 50 mM MgCl2) and incubation for 1h. The negative and positive controls were included in each plate by the incubation of enzyme either with or without ATP-MgCl2. The liquid was removed after incubation and the plates were washed thrice using wash buffer. Europium-tagged antiphosphotyrosine antibody (75 µL, 400 ng) was added to each well followed by incubation of 1h and then washing of the plates using buffer. […] The autophosphorylation percentage inhibition by compounds was calculated using the following equation:

[7] = system: MCF-10A normal human mammary gland epithelial cell line; settings: 50 µM
Method: as §3

[8] = mean IC50 of A-549, MCF-7, Panc-1, HT-29

Molecule | IC50 ([1]; Homo sapiens, MCF7) | IC50 ([2]; Homo sapiens) | IC50 ([3]; Homo sapiens, PANC-1) | IC50 ([4]; Homo sapiens) | viability at 4 days, 50 µM [5] | IC50 ([6]; Homo sapiens, A549) | IC50 (EGFR) | Cell viability % [7] | IC50 ([1]; MCF-7) | IC50 [2] | IC50 ([3]; Panc-1) | IC50 ([6]; A-549) | IC50 [4, 8] | Potency relative to 10e (GI50), fold less potent ([4]; GI50 vs 10e)
COc1ccc(-n2cc(Cn3c(SCc4ccccc4)nc4ccccc43)nn2)cc1 [10g] | 32 ± 3 nM | 35 ± 3 nM | 34 ± 3 nM | 34 nM | 90% | 34 ± 3 nM | 82 ± 5 nM |  |  |  |  |  |  | 
C#Cc1cccc(Nc2ncnc3cc(OCCOC)c(OCCOC)cc23)c1 [Erlotinib, reference compound] |  |  |  | 33 nM |  |  |  |  |  |  |  |  |  | 
Brc1ccc(-n2cc(CSc3nc4ccccc4[nH]3)nn2)cc1 [6c, 2-(((1-(4-Bromophenyl)-1H-1,2,3-triazol-4-yl)methyl)thio)-1H-benzimidazole] | 90 ± 8 nM | 94 ± 9 nM | 96 ± 9 nM | 94 nM | 91% | 96 ± 9 nM |  |  |  |  |  |  |  | 
2-(Benzylthio)-1-((1-(4-chlorophenyl)-1H-1,2,3-triazol-5-yl)methyl)-1H-benzimidazole [10b] |  |  |  |  |  |  |  | 86% | 44 ± 3 nM | 48 ± 4 nM | 48 ± 4 nM | 48 ± 4 nM |  | 
Clc1ccc(-n2cc(CSc3nc4ccccc4[nH]3)nn2)cc1 [6b, 2-(((1-(4-Chlorophenyl)-1H-1,2,3-triazol-4-yl)methyl)thio)-1H-benzimidazole] | 45 ± 4 nM | 48 ± 4 nM | 48 ± 4 nM | 47 nM | 87% | 47 ± 4 nM |  |  |  |  |  |  |  | 
NS(=O)(=O)c1ccc(-n2cc(Cn3c(SCc4ccccc4)nc4ccccc43)nn2)cc1 [10i] | 42 ± 4 nM | 45 ± 4 nM | 44 ± 4 nM | 43 nM | 91% | 44 ± 4 nM |  |  |  |  |  |  |  | 
2-(Benzylthio)-1-((1-(3-methoxyphenyl)-1H-1,2,3-triazol-5-yl)methyl)-1H-benzimidazole [10h] |  |  |  |  |  |  |  | 89% | 72 ± 7 nM | 76 ± 7 nM | 76 ± 7 nM | 76 ± 7 nM | 75 nM | 
O=[N+]([O-])c1ccc(-n2cc(CSc3nc4ccccc4[nH]3)nn2)cc1 [6d, 2-(((1-(4-Nitrophenyl)-1H-1,2,3-triazol-4-yl)methyl)thio)-1H-benzimidazole] | 83 ± 7 nM | 86 ± 8 nM | 86 ± 8 nM | 85 nM | 93% | 85 ± 7 nM |  |  |  |  |  |  |  | 
O=[N+]([O-])c1cccc(-n2cc(CSc3nc4ccccc4[nH]3)nn2)c1 [6e, 2-(((1-(3-Nitrophenyl)-1H-1,2,3-triazol-4-yl)methyl)thio)-1H-benzimidazole] | 36 ± 3 nM | 38 ± 3 nM | 38 ± 3 nM | 38 nM | 86% | 40 ± 3 nM | 89 ± 6 nM |  |  |  |  |  |  | 
O=[N+]([O-])c1ccc(-n2cc(Cn3c(SCc4ccccc4)nc4ccccc43)nn2)cc1 [10d] | 34 ± 3 nM | 38 ± 3 nM | 36 ± 3 nM | 36 nM | 89% | 37 ± 3 nM | 86 ± 6 nM |  |  |  |  |  |  | 1.5 fold
COc1ccc(-n2cc(CSc3nc4ccccc4[nH]3)nn2)cc1 [6g, 2-(((1-(4-Methoxyphenyl)-1H-1,2,3-triazol-4-yl)methyl)thio)-1H-benzimidazole] | 69 ± 6 nM | 74 ± 7 nM | 72 ± 7 nM | 72 nM | 89% | 72 ± 7 nM |  |  |  |  |  |  |  | 
Cc1ccc(-n2cc(CSc3nc4ccccc4[nH]3)nn2)cc1 [6f, 2-(((1-(p-Tolyl)-1H-1,2,3-triazol-4-yl)methyl)thio)-1H-benzimidazole] | 78 ± 7 nM | 82 ± 7 nM | 80 ± 7 nM | 80 nM | 90% | 81 ± 7 nM |  |  |  |  |  |  |  | 
c1ccc(-n2cc(CSc3nc4ccccc4[nH]3)nn2)cc1 [6a, 2-(((1-Phenyl-1H-1,2,3-triazol-4-yl)methyl)thio)-1H-benzimidazole] | 85 ± 7 nM | 88 ± 8 nM | 89 ± 8 nM | 88 nM | 84% | 89 ± 8 nM |  |  |  |  |  |  |  | 
2-(Benzylthio)-1-((1-(p-tolyl)-1H-1,2,3-triazol-5-yl)methyl)-1H-benzimidazole [10f] |  |  |  |  |  |  |  | 89% | 63 ± 6 nM | 65 ± 6 nM | 65 ± 6 nM | 66 ± 6 nM | 65 nM | 
2-(Benzylthio)-1-((1-(4-bromophenyl)-1H-1,2,3-triazol-5-yl)methyl)-1H-benzimidazole [10c] |  |  |  |  |  |  |  | 92% | 52 ± 5 nM | 54 ± 5 nM | 54 ± 5 nM | 55 ± 5 nM | 54 nM | 
2-(Benzylthio)-1-((1-phenyl-1H-1,2,3-triazol-5-yl)methyl)-1H-benzimidazole [10a] |  |  |  |  |  |  |  | 87% | 56 ± 5 nM | 60 ± 5 nM | 60 ± 5 nM | 59 ± 5 nM | 59 nM | 
COc1cccc(-n2cc(CSc3nc4ccccc4[nH]3)nn2)c1 [6h, 2-(((1-(3-Methoxyphenyl)-1H-1,2,3-triazol-4-yl)methyl)thio)-1H-benzimidazole] | 66 ± 6 nM | 68 ± 6 nM | 69 ± 6 nM | 68 nM | 91% | 69 ± 6 nM |  |  |  |  |  |  |  | 

Reference: publication PMC11783063, “Design, synthesis, and apoptotic antiproliferative action of new benzimidazole/1,2,3-triazole hybrids as EGFR inhibitors” (Frontiers in Chemistry, 2025)
